Marks after values point to notes of the source that are not given here.
Experiments:
[1] = test system: rat monocrotaline (MCT)-induced severe heart failure (pulmonary hypertension) model; experiment: Survival rate in rat monocrotaline-induced pulmonary hypertension model; format: in vivo; details: 42 days after MCT
Text: The produced Formulation 21 (ONO-1301Lipo formulation) as a test substance was intermittently administered intravenously once weekly to a rat monocrotaline (MCT)-induced severe heart failure (pulmonary hypertension) model from day 7 of the MCT administration, and the survival rate was compared with a group in which compound (A) (ONO-1301) was repeatedly orally administered; a group in which compound (A) was intermittently administered intravenously once weekly; and, as a positive control, a group in which an ET-1 antagonist (bosentan) was orally administered. In the control group, physiological saline (vehicle) was administered once weekly by intravenous administration.
For animals, Slc: Wistar male rats, 5 weeks old at the start of the test, and 66.4 to 90.8 g at arrival (Japan SLC, Inc.) were used. Monocrotaline (hereinafter referred to as “MCT”), lot No.: SLBG1999V (Sigma-Aldrich Corporation), was administered once subcutaneously at the back of the rats at a dose of 60 mg/kg. Six days after the MCT administration, the animals were divided into groups according to the weight stratification assignment method (Table 19).

[2] = test system: BLM pulmonary fibrosis model mice; experiment: Survival rate in BLM pulmonary fibrosis model mice; format: in vivo; details: day 6 to 28 after BLM
Protocol: C57BL/6NCr female mice (7 weeks old) were anesthetized with sodium pentobarbital, and then intratracheally (intrapulmonary) administered with 20 μL of a bleomycin hydrochloride aqueous solution (BLM) twice (40 μL in total per animal). In a normal group (Normal), vehicle (physiological saline) was similarly intratracheally administered.
From 6 days to 28 days after the BLM administration, the test substance was administered to compare the survival rates. As the test substances, compound (A) (ONO-1301) was repeatedly orally administration twice daily, compound (A) (ONO-1301) was intravenously administered once weekly, and compound (A) (ONO-1301) was intratracheally administered once weekly. Further, Formulation 25 (ONO-1301Lipo) was intravenously administered once weekly, and Formulation 25 (ONO-1301Lipo) was intratracheally administered once weekly to analyze the DDS effect of Formulation 25 (ONO-1301Lipo) by comparing the survival rates.
From 6 days after the preparation of the lung injury model, the vehicle and compound (A) (3 mg/kg) were repeatedly orally administered twice daily for 23 days (the administration interval between morning and afternoon was 8 hours or more).
(§1) The administration was performed 6 days after the preparation of the lung injury model; after that, tail vein intravenous administration was performed once weekly (4 times in total, i.e., 6, 13, 20, and 27 or 28 days after the preparation of the model).
as §1, with “intratracheal” for “tail vein intravenous”, “model). In normal Group 9 (Normal), physiological saline was administered in a similar manner.” for “model).”

[3] = Body weight and heart and lung weights in J2N-k hamsters; format: in vivo, hamster; details: for Body weight (g) at dissection: week 8
Protocol: Dissection was performed as follows. After all of the blood was collected from the abdominal aorta, and the hamsters were euthanized under isoflurane anesthesia, the heart and lungs were removed and weighed. After the weights thereof were measured, the removed parts, including the left and right ventricles, were divided into three parts; i.e., apical, middle, and basal parts, at intervals of about 2 mm along the short axis.
Tables 26 and 27 show the body weight change at the time of grouping and at the time of dissection, and the weights of heart and lung at the time of dissection.

[4] = test system: rat model of ischemia by complete coronary artery ligation; experiment: Echocardiography (EF %, % FS) in rat model of ischemia by complete coronary artery ligation; format: in vivo
Protocol: An improvement in the cardiac function against ischemic heart disease and an effect of preventing death from heart failure by intermittent intravenous administration of Formulation 25 (ONO-1301Lipo) or compound (A) (ONO-1301) were analyzed by using the left ventricular ejection fraction (hereinafter referred to as “EF %”), left ventricular fractional shortening (hereinafter referred to as “% FS”), and histological evaluation, based on echocardiography, as indices.
Male Sprague-Dawley rats (CLEA Japan, Inc., 6 weeks old when arrived) were anesthetized with a liquid mixture of 0.5 mg/kg of midazolam (Dormicum Injection 10 mg, Astellas Pharma Inc.) and 2 mg/kg of xylazine (Celactal 2% injection, Bayer Japan Ltd.). Thereafter, the animal tail veins were secured, and Propofol (1% Diprivan Injection; AstraZeneca K.K.) was continuously infused at 6 to 10 mg/kg/hr with a syringe pump (Terufusion TE-3310N; Terumo Corporation) to maintain deep anesthesia. Thereafter, a tracheal cannula (a cut-down catheter with an outside diameter of 2.0 mm, produced by JMS Co., Ltd.) was inserted and indwelled, and a respirator (for small animals; Shinano Seisakusho) was connected to maintain breathing at a stroke volume of 1 mL/100 g/stroke (±1 mL) and a stroke rate of 70 times/min (±10 times). Thereafter, the animals were fixed in a recumbent position from a dorsal fixed position so that the left chest faced upward, and the epidermis and muscle layer between the third to fourth or fourth to fifth ribs were incised with a surgical knife. After confirming that the knife reached the thoracic cavity, the intercostal space was widened with a rib spreader, and a state in which the anterior descending branch (hereinafter referred to as “LAD”) from the left atrial appendage was directly visible at the front was secured.
Thereafter, the translucent thin pericardium was removed with tweezers to expose the myocardium. Thereafter, the LAD located at the margin of the left atrial appendage was pierced and secured with a nylon thread with a 6-0 or 7-0 needle at a depth of 2 to 3 mm using a microneedle holder, and the LAD was completely ligated. Thereafter, the muscle layer and epidermis were sutured and closed with a 4-0 or 5-0 nylon thread. After the chest was closed, 50 mg of cefamedin was subcutaneously administered to the treatment site, and the treatment was terminated.
Echocardiography was performed to confirm the cardiac function improving effect of the test substances using the left ventricular ejection fraction (hereinafter referred to as “EF %”) as an index.
The test was performed 23 hours after the preparation of the model (test for grouping), the animals whose EF % value decreased by 25% or more of that of normal animals were selected, grouping was performed, and a solution for administration of the test substances was administered by tail vein intravenous administration 24 hours after the preparation of the model. Thereafter, echocardiography was performed 7 and 14 days after the test substance administration.

[5] = 3.0 mg/kg single i.v. 24 hours after infarction, day 7
[6] = 3.0 mg/kg single i.v. 24 hours after infarction, day 14
[7] = group 3.0 mg/kg single i.v., 23 hours after LAD ligation, before administration

With `O=C(O)COc1cccc2c1CCC=C2CCO/N=C(\c1ccccc1)c1cccnc1` [Compound (A), ({5-[2-({[(1E)-phenyl(pyridin-3-yl)methylene]amino}oxy)ethyl]-7,8-dihydronaphthalen-1-yl}oxy)acetic acid] the “Survival rate (%)” value ([1]; intravenous 1 mg/kg/week from day 7) was 20%, the “Survival rate (%)” value ([1]; oral 3 mg/kg × twice/day from day 7) was 50* % and the survival rate ([2]; intratracheal 1 mg/kg once/week) was 20%. The survival rate ([2]; intravenous 3 mg/kg once/week) was 40%, the survival rate ([2]; oral 3 mg/kg twice/day) was 60% and the “Body weight (g) at dissection” value ([3]; 3.0 mg/kg i.v. once/2 weeks) was 144.4 ± 13.3 g. The “Body weight (g) at dissection” value ([3]; 3.0 mg/kg p.o. twice/day) was 128.6 ± 3.0 g, the “Body weight (g) Before drug administration” value ([3]; group 3.0 mg/kg i.v. once/2 weeks) was 128.7 ± 10.4 g and the “Body weight (g) Before drug administration” value ([3]; group 3.0 mg/kg p.o. twice/day) was 118.8 ± 9.6 g. The “% FS 1 W” value [4, 5] was 25.4 ± 5.6%, the “EF % 1 W” value [4, 5] was 54.6 ± 8.8% and the “% FS 2 W” value [4, 6] was 24.5 ± 4.4%. For the same compound, the “EF % 2 W” value [4, 6] was 53.2 ± 7.1%, the “% FS Pre” value [4, 7] was 26.5 ± 3.7 % and the “EF % Pre” value [4, 7] was 56.7 ± 5.5 %.

Reference: patent US12569437B2, “Disease-site-specific liposomal formulation” (Osaka University, priority 2017, dated 2026)
